Measured values from patent US20060293343A1, “Pyrimidine derivatives” (Asahi Kasei Pharma Corporation, priority 2005, published 2006).
Where two headings read alike, the source gives them in different places.

What was measured:
PDE4 = test system: T1, PDE4; experiment: Inhibitory action of PDE4 enzyme activity (PDE4 purified from U937 cells); format: biochemical; conditions: PDE4 fraction purified from U937 cells; [3H]-cAMP substrate; 30° C., 10 minutes
T1 construct: The PDE4 enzyme was purified from U937 cells that are the cells derived from lymphoma
Experimental: (1) Purification of PDE4 from U937 Cells
The PDE4 enzyme was purified from U937 cells that are the cells derived from lymphoma. U937 cells were suspended in buffer solution A (20 mM Tris-HCl(pH 6.5), 1 mM MgCl2, 0.1 mM EGTA, 3 mM 2-mercaptoethanol) containing protease. inhibitor cocktail (manufactured by Sigma Co.), and a soluble fraction was obtained by centrifugation after ultrasonic disintegration (100,000 G, 30 minutes, 4° C.). […] Each fraction was tested for the cAMP metabolized PDE activity to identify the fractions containing PDE4 enzyme.
(2) Measurement of Inhibitory Activity of PDE4 Enzyme Activity
A desired concentration of the test compound was allowed to react in a reaction mixture (100 μL; 40 mM Tris-HCl (pH 7.4), 5 MM MgCl2, 4 mM 2-mercaptoethanol, […] cAMP, 0.83 μCi [^3H]-cAMP and PDE4 fraction) at 30° C. for 10 minutes. The enzyme reaction was stopped by adding 25 μL of trichloroacetic acid to the reaction mixture. The reaction solution was charged on a neutral alumina column equilibrated with 0.1 M of 2-[[tris(hydroxylmethyl)methyl]-amino]-1-ethanesulfonic acid (TES) buffer (pH 8.0) and, after washing the column with a sufficient amount of 0.1 M TES buffer solution, the column was eluted with 2N NaOH. A 500 μL aliquot of the eluate containing [^3H]-5′AMP product was filled in a scintillation vial containing the scintillation cocktail (5 ml, manufactured by Perkin Elmer Co.) to measure radioactivity. […] The inhibitory action of PDE4 enzyme activity was expressed by IC50 (nM). Ex. No. in Table 8 denotes the example No.

[1] = test system: TNF-α production in LPS-stimulated mouse mononuclear cells; experiment: Inhibitory action of TNF-α production using mouse mononuclear cells (in vitro); format: cell-based; conditions: mouse mononuclear cells from peripheral blood of C3H/He mouse; LPS 5 μg/mL, 21 hours; TNF-α ELISA; read-out: IC50 (nM), suppression action of TNF-α production
Experimental: Mouse mononuclear cells were isolated from the peripheral blood of C3H/He mouse (manufactured by Japan SLC Co., male), and were suspended in a culture medium (trade name RPMI 1640 manufactured by Gibco Co.) containing 10% bovine serum. The cells were seeded in a 96 well plate as 50,000 cells/well, the test compound was added at a desired concentration, and the plate was allowed to stand in an incubator containing 5% CO2 at .37° C. for 15 minutes. LPS was added thereafter at a final concentration of 5 μg/mL, and the plate was allowed to stand in the incubator for 21 hours.
The culture medium containing produced TNF-α was retrieved, and the amount of TNF-α was measured according to the protocol attached to mouse TNF-α ELISA kit (manufactured by R & D Systems Co.). […] The suppression action of TNF-α was expressed-by […] (nM). Ex. No. in Table 9 denotes the example No.

[2] = test system: rabbit gastric gland cells; experiment: Action on gastric acid secretion ability (in vitro), 14C-aminopyrine uptake in gastric gland cells; format: cell-based; conditions: Oryctolagus cuniculus, histamine 0.3 to 1.0 μM
Experimental: Gastric acid secretion ability (as an index of the side effect) was tested according to the methods by BergLindh and Obrink (Acta Physiol. Scand. 97:401-414, 1976) and Sack and Speney (Am. J. Physiol. 243:G313-G319, 1982).
Gastric gland cells were prepared by collagenase treatment using male rabbit (Japanese white strain, manufactured by Oriental Yeast Co.).
The test compound, ^14C-aminopyrine (1.0 nmol/mL; 0.1 μCi/nmol) and histamine (0.3 to 1.0 μM) were incubated for a given time period, and gastric gland cell pellets obtained after centrifugation and washing were lysed with 100 μL of 1N-KOH. The lysate was filled in a scintillation vial containing a scintillation cocktail (manufactured by Perkin Elmer Co.) to measure the radioactivity. The gastric acid secretion action by the test compound was calculated as EC50, and the ratio of the activity relative to IC50 of suppression of TNF-α production described in Test Example 2 (degree of dissociation A) was determined from the following equation. The larger degree of dissociation A is more preferable. The results in Table 10 represent that secretion of the gastric acid ability(EC50) was lower activity in the compound of the invention, salts thereof or prodrugs thereof as compared with the suppression effect of TNF-α production(IC50). Ex. No. in Table 10 denotes the example No.
Degree of dissociation A=EC50 of gastric acid secretion ability/IC50 of suppression of TNF-α production

[3] = test system: TNF-α production induced by LPS; experiment: Inhibitory action of TNF-α production (in vivo) induced by LPS using mouse
Experimental: C3H/He mouse (manufactured by Japan SLC Co., male) was used as a test animal. A desired concentration of the test sample was suspended in 0.5% methyl cellulose solution. The weight of the mouse was measured, and the test compound solution was orally administered at a dosage of 10 mL/kg while only 0.5% methyl cellulose was administered to the reference group. One group contained 5 to 7 mice. LPS was dissolved in physiological saline, and 10 μg was intraperitoneally administered to each mouse. The test compound was administered first, then LPS was administered 60 minutes thereafter. After 90 minutes, the blood was sampled from the large abdominal vein with the heparin, and a plasma was obtained by centrifugation. The content of TNF-α in the plasma was measured according to the protocol attached to TNF-α ELISA kit (manufactured by R & D System Co.). […] The suppression action of TNF-α production was represented by ED50 (mg/kg). Ex. No. in Table 11 denotes the example No.

C3H/He mouse = experiment: Gastric emptying test of mouse (in vivo); conditions: oral, test meal 60 minutes after compound
Experimental: C3H/He mouse (manufactured by Japan SLC Co., male) fasted for 21 to 24 hours but allowed free access to water, was used as an experimental animal. A desired concentration of the test sample was suspended in 0.5% methyl cellulose solution. The weight of the mouse was measured, and the test compound solution was orally administered at a dosage of 10 mL/kg while only 0.5% methyl cellulose solution was administered to the reference group. One group contained 5 mice. A 1.5% methyl cellulose solution containing 0.05% phenol, red was used as a test meal solution. The test compound was administered, and 0.2 ml of the test meal was orally administered at 60 minutes thereafter. […] A 10% trichloroacetic acid solution (0.5 mL) was added to 5 mL of the supernatant, which was further centrifuged to remove proteins. A solution prepared by adding 125 μL of 2 N NaOH to the supernatant (1 mL) obtained by centrifugation was measured with a spectrophotometer (550 nm), and inhibition of transfer from the stomach to the small intestine was expressed by IC50 (mg/kg).

Marshall ferret = experiment: Vomiting action using ferret; format: in vivo; conditions: oral, observed for more than 6 hours
Experimental: Marshall ferret (male, weight 1 to 1.5 kg, manufactured by Charles River Laboratories Japan, Inc.) was used. A desired concentration of the test compound was suspended in 0.5% methyl cellulose solution. The weight of a ferret was measured, and the solution of the test compound was orally administered at a dosage of 1 to 8 ml/kg. Only 0.5% methyl cellulose solution was administered to the reference group. One group contained 4 animals.

[4] = C3H/He mouse, orally administered 60 minutes before LPS 10 μg intraperitoneally, plasma TNF-α 90 minutes after LPS, read-out: ED50 (mg/kg), suppression action of TNF-α production
[5] = mouse, oral, LPS 60 minutes after compound, plasma TNF-α after 90 minutes, read-out: suppression of TNF-α production ED50

| IC50 (PDE4) [nM] | IC50 [1] [nM] | EC50 [2] [nM] | gastric emptying test IC50 (inhibition of transfer from the stomach to the small intestine) (C3H/He mouse) [mg/kg] | SMILES | ED50 [3, 4] [mg/kg] | ED50 [3, 5] [mg/kg] | incidence of vomiting by the ferret (Marshall ferret; dosage of 50 mg/kg) | incidence of vomiting by the ferret (Marshall ferret; dosage of 100 mg/kg) |
| --- | --- | --- | --- | --- | --- | --- | --- | --- |
| 9 | 24 | 1690 | 14 | C=CCc1c(CC)nc(-c2ccsc2)nc1Nc1ccc2cc(C(=O)O)ccc2c1 [Example 17] | 3 | 3 | no incidence of vomiting |  |
| 1680 | 202 |  |  | CCc1c(C)nc(-c2ccsc2)nc1Nc1ccc(C(=O)O)cc1 [Example 18] | 37 |  |  |  |
|  | 44 | 460 |  | CCc1nc(-c2ccsc2)nc(Nc2ccc(C(=O)O)cc2)c1CC [Example 57] | 24 |  |  |  |
|  | 695 | 1310 |  | CCc1nc(-c2ccsc2)nc(Nc2ccc(CC(=O)O)cc2)c1CC [Example 58] | 8 |  |  |  |
| 41 | 69 | 227 |  | CCc1nc(-c2ccsc2)nc(Nc2ccc3cc(C(=O)O)ccc3c2)c1CC [Example 59] | 6 |  |  |  |
|  | 171 | 38400 |  | CCc1c(C)nc(-c2ccc(SC)s2)nc1Nc1ccc(CC(=O)O)cc1 [Example 78] |  |  |  |  |
|  | 46 | 169 |  | CCc1nc(-c2cccs2)nc(Nc2ccc(C(=O)O)cc2)c1CC [Example 83] | 22 |  |  |  |
|  | 533 | 1660 |  | CCc1nc(-c2cccs2)nc(Nc2ccc(CC(=O)O)cc2)c1CC [Example 84] | 17 |  |  |  |
|  | 676 | 10100 | 85 | CCc1c(C)nc(-c2ccc(Br)s2)nc1Nc1ccc(CC(=O)O)cc1 [Example 148] | 12 | 12 |  | no incidence of vomiting |
